Like-named read-outs stand apart in the source and are kept apart here.
What was measured:
stromelysin = stromelysin (Homo sapiens, UniProt P08254); experiment: Assay of Stromelysin Inhibition Activity (fluorogenic substrate hydrolysis); type: biochemical; conditions: for inhibition at 10 µM: read-out: percent inhibition of stromelysin
Method: (§1) Stromelysin was first activated by trypsin. This was done by preparing a reaction mixture in B-150 (B-150 consists of 150 mM NaCl, 20 mM Tris at pH 7.8 and 0.02% sodium azide) containing a final concentration of 4 μg/mL trypsin, 1.48 μg/mL of stromelysin, and 3.15 mM CaCl2. The reaction was incubated for 30 minutes at 37° C. and then quenched by adding soybean trypsin inhibitor to a final concentration of 43.6 μg/mL. ZnCl2 was added to the reaction mixture for a total concentration of 0.24 μM.
(§2) Following preparation of the solution of activated stromelysin, assay solutions were prepared for each inhibitor being tested. A control was also prepared. First, […] of activated stromelysin (about 45 μL from the solution of activated stromelysin) were aliquotted per assay tube. A 2.5 mM solution in 100% dimethyl sulfoxide (DMSO) was prepared for each inhibitor being tested and 1 μL from each inhibitor solution was added to one of the assay tubes. In addition, 1 μL of 100% DMSO was added to the control assay tube. All assay tubes were then pre-incubated for 5 minutes.
(§3) 5 μL of a previously prepared 50 μM solution of substrate in 15% DMSO were added to each assay tube. The substrate was a methoxycumarin developed by Knight et al. FEBS Lett. 296:263-66 (1992). The tubes were then incubated for 60 minutes, at which time the reaction was stopped with the addition of 750 μL of 0.1M NaAc pH 4.0 buffer.
(§4) Substrate hydrolysis was assessed by fluorescence using a slit width of 10:10, excitation at 328 nm and emission at 393 nm. The results of these assays are listed in Table I as percent inhibition at 10 μM of the bile acid provided compound tested or as the IC50.

[1] = tested on: bovine cartilage explants; experiment: Bovine Cartilage Explant Assay (35S-GAG release, rhIL-1α stimulated; tissue culture); type: cell-based; conditions: Bos taurus, read-out: percent inhibition of extracellular matrix damage, Tissue Culture
From the text: A tissue culture assay was used to measure the ability of the compounds of the present invention to slow the degradation of the extracellular matrix by metalloproteinases. This assay measured the amount of ^35 S-glycosaminoglycan (^35 S-GAG) released from labeled bovine cartilage explants.
Knee joints from a 1 to 3 week old calf were obtained immediately after sacrifice from the Abattoir and then transported on ice. The intact joints were washed well with tap water and soaked in 50% (v/v) Povidine iodine solution, obtained from Burre National, Inc., Baltimore, Md. All subsequent steps were performed in a laminar flow tissue culture hood using standard sterile technique. The joint was immobilized in a shank holder and the joint capsule was cut open to expose the articular cartilage. Cartilage explant plugs, approximately 15 mg wet weight, were removed from the flat articulating surfaces in the lower-most region of the knee joint using a sterile steel cork-borer and collected in a 250 mL roller bottle containing about 100 mL fresh Delbecco's minimum essential medium (DMEM), obtained from Gibco BRC, Life Technologies, Gaithersburg, Md., containing 4.5 g/1 (D)-glucose and (L)-glutamine, without sodium pyruvate. The fresh media also contained enough Hepes buffer and sodium bicarbonate such that the pH was about 7.4. The media was then further supplemented just before use with 100 units Penicillin, 100 μg Streptomycin, and 50 μg (L)-ascorbic acid per mL of medium.
Once collected, the explant plugs were washed four times with 50 mL fresh DMEM. The plugs were then placed in the incubator for a minimum of 1 hour to equilibrate, before proceeding to make disks from the articulating surface of each plug. A 1 mm thick disk was sliced from individual plugs from the end that was the articulating surface of the joint. The plug was held steady in the sterile template (4 mm diameter×1.5 mm deep) using sterile forceps. A scalpel blade was used to carefully slice off the disk. Only the superficial articulating surface responded well in culture.
Individual disks obtained were transferred to a tissue culture flask containing about 100 mL fresh media. The flask containing the disks was placed in an incubator at 37° C. (with 5% CO2, 95% air) and allowed to equilibrate overnight and at least one additional day before labeling. When ready to label, the old media was replaced with 50 mL fresh media containing about 500 μCi ^35 S-Sodium Sulfate. The plugs were labeled in bulk for about 48 hours. The next morning, the "hot" media was removed and replaced with fresh "cold" media. The disks were again allowed to equilibrate overnight before being used for actual experiments.
The media in which the disks were stored was changed immediately prior to performing the assay. The disks were then returned to the incubator until the test media and the two control media had been prepared. The test media consisted of a bile acid or bile acid derivative (50 μM) being tested for its ability to inhibit extracellular matrix degradation and concomitant recombinant human Interleukin rhIL-1α (5 ng/mL) in fresh DMEM solution. The control media were identical to the test media, except that the first control media lacked rhIL-1α and the second control media lacked an inhibitor, i.e. a bile acid or bile acid derivative. 250 μL of each of the test and control media were transferred to separate 96-well TC plates. Flamed forceps were used to transfer a disk from the incubator to each 96-well TC plates that had been filled with either the test media or one of the two control media.
The TC plates were then placed in the incubator and cultured for 3-4 days (initial incubation with rhIL-1α alpha takes at least 3 days to stimulate endogenous metalloproteinases). A 50 μL aliquot of media from each TC plate was saved and counted. The rest of the media was removed with a suction device.
The cartilage disks from each TC plate were also saved for counting. […]

gelatinase (72 (Kd)) = target: T1, gelatinase (72 (Kd) (Homo sapiens, UniProt P08253)); experiment: Assay of Gelatinase Inhibition Activity (72 Kd gelatinase); type: biochemical; conditions: for inhibition at 10 µM: read-out: percent inhibition of gelatinase
T1 sequence (P08253 110-660): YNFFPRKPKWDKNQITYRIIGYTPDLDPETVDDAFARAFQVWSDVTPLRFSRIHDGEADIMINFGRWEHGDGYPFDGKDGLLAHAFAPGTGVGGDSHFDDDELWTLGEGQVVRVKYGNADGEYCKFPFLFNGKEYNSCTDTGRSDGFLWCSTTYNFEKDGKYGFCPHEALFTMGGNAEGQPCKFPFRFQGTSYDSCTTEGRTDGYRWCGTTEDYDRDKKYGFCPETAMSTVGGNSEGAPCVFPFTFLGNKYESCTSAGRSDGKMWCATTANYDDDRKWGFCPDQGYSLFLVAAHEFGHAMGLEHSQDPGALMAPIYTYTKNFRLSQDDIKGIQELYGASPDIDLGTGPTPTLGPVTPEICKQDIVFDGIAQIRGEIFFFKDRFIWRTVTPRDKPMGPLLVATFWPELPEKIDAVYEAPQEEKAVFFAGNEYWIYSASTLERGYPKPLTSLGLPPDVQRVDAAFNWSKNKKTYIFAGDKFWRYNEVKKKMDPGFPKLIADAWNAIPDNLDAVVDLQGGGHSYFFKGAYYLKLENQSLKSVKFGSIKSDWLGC
Method: as §1, §2, §3, §4
The assay procedure for gelatinase (72 (Kd) was the same as described in Example 13 for stromelysin except that the trypsin activation was performed for 60 minutes. In addition, the incubation of the assay tubes at 37° C. was for 60 minutes, and the final enzyme concentration was 3 nm. The results of these assays are listed in Table I as percent inhibition at 10 μM of the compound tested.

collagenase = experiment: Assay of Collagenase Inhibition Activity; type: biochemical; conditions: at 10 μM of compound; 45 minutes at 37° C.
Method: as §1, §2, §3, §4
The assay procedure for collagenase was the same as described in Example 13 for stromelysin except that the trypsin activation was performed for 45 minutes. In addition, the incubation of the assay tubes at 37° C. was only for 45 minutes, and the final enzyme concentration is 6 nm. The results of these assays are provided in Table I as percent inhibition at 10 μM of the compound tested.

chondrocytes = experiment: Chondrocyte Cell Culture Matrix Breakdown Assay (35S release, rhIL-1α stimulated); type: cell-based, calf; conditions: at 50 μM; rhIL-1α 1 ng/ml; 22-24 hours
Method: A cell culture assay was used to measure the ability of compounds to slow the degradation of the extracellular matrix by a metalloproteinase. This assay measured the amount ^35 S released from chondrocytes grown in a media with ^35 S labeled sodium sulfate. The cell culture assay was carried out as follows:
Two or three 1 to 3 week old calf joints were obtained from an abattoir. The proximal end of the shank was at about 4-5" long to facilitate immobilization in the holder. The joint was kept cool and transported on ice. The exterior of the intact joints was washed well with a suitable anti-microbial soap, rinsed clean with warm water, rinsed in betadine and then finally rinsed with 70% ethanol. Up to this point all steps were done in a manner to ensure that the joint was kept as clean as possible. All subsequent steps were performed in a sterile field (i.e., in a Edgeguard laminar flow tissue culture hood). The joint was immobilized and the synovial fluid was aspirated with a needle and syringe. The joint was then cut open to expose the articular cartilage using a #21 scalpel. Using locking hemostats, forceps and a #15 scalpel, the cartilage was excised in full thickness pieces. Care was taken not to cut too deep because bleeding would have occurred if the subchondral bone, was penetrated. The cartilage pieces were placed into a 50 mL centrifuge tube containing 25 mL of Delbecco's phosphate buffered saline (D-PBS) supplemented with 1% antibiotic solution (penicillin, streptomycin and fungizone; GIBCO/BRL). The slices from each joint were then placed into separate 50 mL centrifuge tubes. The D-PBS was decanted and replaced with 25 mL of fresh D-PBS supplemented with antibiotics and subsequently agitated gently.
The cartilage pieces were transferred to a fresh 50 mL centrifuge tube and rinsed once more with 25 mL of D-PBS minus antibiotics. An enzymatic digestion solution containing 1 mg/mL of hyaluronidase in serum-free 1:1 DMEM/Ham's F-12 (DMEM/F12) was prepared. This solution was filter sterilized with […] Milex--GV filter and kept on ice until ready to use. The cartilage pieces were digested with approximately 5 mL of hyaluronidase solution per joint for 2×15 minutes at 37° C. in the 50 mL centrifuge tube with gentle agitation at the 15 minute mark. This procedure removed residual hyaluronic acid from the surface of the chips. The enzymatic digestion solution was then aspirated and the cartilage pieces were rinsed with 25 mL of D-PBS.
A second enzymatic digestion solution containing 2.5 mg trypsin and 2 mg collagenase P per mL serum-free DMEM/F12 was prepared. This solution was also filter sterilized with a […] Millex--GV filter and kept on ice until ready to use. The cartilage pieces were digested with approximately 5 mL of trypsin: collagenase solution per joint for 2×15 minutes at 37° C. in the 50 mL centrifuge tube with gentle agitation at the 15 minute mark. This procedure removed the synovial fibroblasts and any adherent connective tissue from the surface of the chips. The enzymatic digestion solution was then carefully removed and saved and the cartilage pieces were rinsed with 25 mL of D-PBS.
A third enzymatic solution containing 2 mgs of collagenase P (BMB) per mL serum-free DMEM/F12 was prepared. This solution was filter sterilized with a […] Millex--GV filter and kept on ice until ready to use. The pre-digested cartilage pieces were finally digested with approximately 20 mL of enzymatic digestion solution per joint for 5-6 hours at 37° C. in a Bellco stirring digestion flask, at which point the cartilage was fully digested away.
The enzymes in the synovial fibroblast and chondrocyte digest were neutralized by addition of an equal volume of DMEM/F12 supplemented with 5% fetal bovine serum. Fibroblasts were plated in DMEM at a cellular density of 6.6×10^3 cells per cm^2. […]

[2] = at 10 μM of compound, 60 minutes at 37° C.

Sequence of stromelysin (P08254 100-477): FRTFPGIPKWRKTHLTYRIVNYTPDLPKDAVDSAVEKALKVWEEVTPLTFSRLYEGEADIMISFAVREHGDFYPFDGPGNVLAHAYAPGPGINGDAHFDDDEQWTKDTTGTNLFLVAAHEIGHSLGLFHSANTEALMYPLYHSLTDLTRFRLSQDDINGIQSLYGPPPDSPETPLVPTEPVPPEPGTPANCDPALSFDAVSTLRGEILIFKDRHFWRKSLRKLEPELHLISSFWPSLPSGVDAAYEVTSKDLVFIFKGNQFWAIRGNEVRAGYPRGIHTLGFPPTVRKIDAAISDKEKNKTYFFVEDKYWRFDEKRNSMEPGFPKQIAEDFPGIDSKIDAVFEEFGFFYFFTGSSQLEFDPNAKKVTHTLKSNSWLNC

C[C@H](CCC(=O)O)[C@H]1CC[C@H]2[C@@H]3[C@H](O)C[C@@H]4C[C@H](O)CC[C@]4(C)[C@H]3C[C@H](O)[C@]12C [Compound 7, Cholic acid, reference compound]
inhibition at 10 µM (stromelysin): 24% | inhibition at 50 µM [1]: -90% | inhibition at 10 µM (gelatinase (72 (Kd))): 4% | percent inhibition of collagenase (collagenase): 21%

C[C@H](CCC(=O)NOCc1ccccc1)[C@H]1CC[C@H]2[C@@H]3CC[C@@H]4C[C@H](O)CC[C@]4(C)[C@H]3CC[C@]12C [Compound 11, Lithocholyl-O-Benzylhydroxamate]
inhibition at 10 µM (stromelysin; at 10 μM of compound): 25% | inhibition at 10 µM (gelatinase (72 (Kd)); [2]): 21% | percent inhibition of collagenase (collagenase): 13%

C[C@H](CCC(=O)N[C@@H](Cc1c[nH]c2ccccc12)C(=O)O)[C@H]1CC[C@H]2[C@@H]3CC[C@@H]4C[C@H](O)CC[C@]4(C)[C@H]3CC[C@]12C [Compound 17, Lithocholyl-(L)-Tryptophane]
inhibition at 50 µM [1]: 8% | inhibition at 10 µM (gelatinase (72 (Kd))): 5%

C[C@H](CCC(=O)N[C@@H](Cc1c[nH]c2ccccc12)C(=O)NO)[C@H]1CC[C@H]2[C@@H]3CC[C@@H]4C[C@H](O)CC[C@]4(C)[C@H]3CC[C@]12C [Compound 18, Lithocholyl-(L)-Tryptophane Hydroxamic Acid]
inhibition at 10 µM (stromelysin; at 10 μM of compound): 90% | inhibition at 50 µM ([1]; at 50 μM, rhIL-1α 5 ng/mL, 3-4 days): 3% | inhibition at 10 µM (gelatinase (72 (Kd)); [2]): 41% | percent inhibition of collagenase (collagenase): 35%

CC(C)C(CC(=O)NO)NC(=O)CC[C@@H](C)[C@H]1CC[C@H]2[C@@H]3CC[C@@H]4C[C@H](O)CC[C@]4(C)[C@H]3CC[C@]12C (stereo partly drawn) [Compound 21, Lithocholyl-β-Leucine Hydroxamic Acid]
IC50 (stromelysin; 60 minutes incubation): 3 µM | IC50 (gelatinase (72 (Kd)); 60 minutes at 37° C.): 7 µM | percent inhibition, Cell Culture (chondrocytes): 88%

— patent US5646316A, “Bile acid inhibitors of metalloproteinase enzymes” (OsteoArthritis Sciences, Inc., priority 1995, dated 1997)
